{"source": "patent US20210299150A1", "about": "“AP39 IMPACT ON MITOCHONDRIA, METABOLISM, GENE TRANSCRIPTION REGULATION, CARDIOTOXICITY PROTECTION AND CANCER TREATMENT” (priority 2020, published 2021)", "key": {"H9C2 cells [1]": {"test_system": "H9C2 cells", "experiment": "Crystal violet staining of H9C2 cells, Dox toxicity", "assay_type": "cell-based, Rat", "protocol": "(§1) AP39 treatment also ameliorated Dox toxicity in a model of Rat cardiomyoblast cell line, H9C2. […] There was a narrow window of protection, as 30 μM and 50 μm doses were not as strong as the 40 μM dose (FIGS. 5A and B) in conferring protection. […] Note that Dox caused an apoptotic phenotype in correlation with ROS levels (FIG. 5F, Dox lane). This in vitro AP39 protection is modest when compared to the in vivo scenario. This difference may be due to rapid clearance of toxic metabolites (for instance, higher lactate production, FIG. 10D) and better oxygen supply (AP39 stimulated OCR, FIG. 7C) in vivo and lack of such sophistication in vitro.\nCrystal Violet (CV) assay. For the CV Staining assay, cells were stained with 0.5% crystal violet in 30% ethanol for 10 minutes at room temperature after removal of the medium. The cells were lysed in a 1% SDS (sodium dodecyl sulfate) solution. The absorbance of the solution was measured using a spectrophotometer at a wavelength of 595 nm. FIG. 27."}, "[2]": {"test_system": "cleaved caspase 3 and PARP, phospho ERK1/2 and phospho p38", "experiment": "Western blot of apoptotic markers and stress signaling in H9C2", "assay_type": "cell-based, Rat", "settings": "H9C2, AP39 with Dox vs Dox only", "protocol": "as §1"}, "H9C2 cells [3]": {"test_system": "H9C2 cells", "experiment": "Mitochondrial ROS, MitoSox Red, H9C2", "assay_type": "cell-based, Rat", "settings": "H9C2, AP39 and Dox co-treatment", "protocol": "as §1"}, "AMPK, Opa1": {"test_system": "AMPK, Opa1", "experiment": "Western blot of AMPK activation and Opa1 isoforms", "assay_type": "cell-based", "settings": "after AP39 treatment", "from_the_text": "AP39 enhanced AMPK activation and produced shorter isoform of Opa1, i.e. no longer isoform of Opa1. Note AMPK substrate ACC phosphorylation\nMitochondrial energy efficiency is regulated through accumulation of the shorter form of Opa1 after AP39 treatment. […] Thus, AP39 treatment led to mitochondrial fission, better quality control through increased mitophagy (increased AMPK activation) and energetic efficiency (short form of Opa1), which were all needed to eliminate Dox damaged mitochondria and to halt the functional decline. Apart from its role in mitophagy and quality control, AMPK activation also induces transcription of nuclear encoded mitochondrial resident proteins."}, "A549 lung cancer cells": {"test_system": "A549 lung cancer cells", "experiment": "Cell viability of A549 lung cancer cells", "assay_type": "cell-based", "protocol": "(§2) Methods for cell viability: Cells were plated in 96 wells/6 wells cell culture plates. After 24 hrs of plating, the treatments (added in the growth medium) were conducted. The following assays were performed after 24 hrs of the treatments (day 2). (FIGS. 15A, 17-20, 24-27)\n(§3) MTT assay methods. For the MTT assay, […] of 5 mg/ml MTT-tetrazolium salts in PBS was added to each well containing the growth medium. After 3 hours of incubation, the medium was removed and the formazan crystals were dissolved by adding DMSO. The absorption of the formazan solution was measured using a spectrophotometer at a wavelength of 570 nm. FIGS. 15B, 21-22.\nA549 lung cancer cells were exposed to control, AP39 (AP) at 40 or 60 μM, Doxorubicin at 2.5 or 20 μM, thiolactate at 10 mM, AP39 and Doxorubicin, AP39 and thiolactate, or Doxorubicin and Thiolactate. […] FIGS. 19 and 21."}, "H1299 lung cancer cells": {"test_system": "H1299 lung cancer cells", "experiment": "Cell viability of H1299 lung cancer cells", "assay_type": "cell-based", "protocol": "as §2, §3\nH1299 lung cancer cells were exposed to control, AP39 (AP) at 40 or 60 μM, Doxorubicin at 2.5 or 20 μM, thiolactate at 10 mM, AP39 and Doxorubicin, AP39 and thiolactate, or Doxorubicin and Thiolactate. […] FIGS. 20-22."}, "[4]": {"settings": "AP39 40 or 60 μM, thiolactate 10 mM, 24 hrs"}, "[5]": {"settings": "combination with Doxorubicin 2.5 μM"}}, "data": [{"molecule": "O=C(CCCCCCCCC[P+](c1ccccc1)(c1ccccc1)c1ccccc1)Oc1ccc(-c2cc(=S)ss2)cc1.[Br-]", "note": "[AP39]", "values": [{"measurement": "protection against Dox toxicity, crystal violet staining", "setting": "H9C2 cells [1]; H9C2, AP39 with Dox", "result": "significant protection"}, {"measurement": "AP39 dose conferring strongest protection (30 and 50 not as strong)", "setting": "H9C2 cells [1]; H9C2, crystal violet, with Dox", "result": 40, "unit": "µM"}, {"measurement": "PARP and caspase 3 cleavage", "setting": "[2]", "result": "significantly reduced PARP and caspase 3 cleavage"}, {"measurement": "stress signaling (activated ERK1/2 and p38 kinases)", "setting": "[2]", "result": "reduced stress signaling"}, {"measurement": "ROS in mitochondria (MitoSox Red)", "setting": "H9C2 cells [3]", "result": "significant amelioration of ROS in mitochondria"}, {"measurement": "AMPK activation", "setting": "AMPK, Opa1", "result": "potent AMPK activation"}, {"measurement": "Opa1 isoforms (Opa1-S, Opa1-L)", "setting": "AMPK, Opa1", "result": "elevated amounts of the short form of Opa1 (Opa1-S) at the expense of long form (Opa1-L)"}, {"measurement": "cell killing, agent alone", "setting": "A549 lung cancer cells; [4]", "result": "able to kill lung cancer cells"}, {"measurement": "potency of low doses of Doxorubicin", "setting": "A549 lung cancer cells; [5]", "result": "able to increase the potency of low doses of Doxorubicin"}, {"measurement": "cell killing, agent alone", "setting": "H1299 lung cancer cells; [4]", "result": "able to kill lung cancer cells"}, {"measurement": "potency of low doses of Doxorubicin", "setting": "H1299 lung cancer cells; [5]", "result": "able to increase the potency of low doses of Doxorubicin"}]}]}
